Regarding `COc1cc2c(cc1O[Si](C(C)C)(C(C)C)C(C)C)CCN(Cc1cccc([N+](=O)[O-])c1)C2`, the melting point is 57.3 to 58.6 °C.

The molecule `COc1cc2c(cc1OCc1ccccc1)CCN(Cc1cccc(O[Si](C(C)C)(C(C)C)C(C)C)c1)C2` registered a melting point of 78 to 79 °C.

Turning to `COc1cc2c(cc1OCc1ccccc1)CCN(Cc1ccc(C#N)cc1)C2` [29A, 6-Benzyloxy-2-(4-cyanobenzyl)-7-methoxy-1,2,3,4-tetrahydroisoquinoline], the melting point fell in the range of 161 to 162 °C.

As for `COC(=O)c1cccc(CN2CCc3cc(O)c(OC)cc3C2)c1` [70A, 2-(3-(Methoxycarbonyl)benzyl)-6-hydroxy-7-methoxy-1,2,3,4-tetrahydroisoquinoline], the melting point is 156 to 158 °C.

In the case of `COC(=O)c1ccccc1S(=O)(=O)N1CCc2cc(O)c(OC)cc2C1` [186A, 7-Methoxy-2-(2-(methoxycarbonyl)benzenesulfonyl)-6-hydroxy-1,2,3,4-tetrahydroisoquinoline], the melting point was 134 to 138 °C.

For the molecule `COc1cc2c(cc1O)CCN(S(=O)(=O)c1cccc(CC(=O)O)c1)C2=O` [203A, 6-Hydroxy-7-methoxy-2-(3-carboxymethyl-benzenesulfonyl)-3,4-dihydro-2H-isoquinolin-1-one], the melting point is 236 to 239 °C.

`Oc1ccc2c(c1)CCN(Cc1ccc3c(c1)OCO3)C2` [B2, 2-Piperonyl-1,2,3,4-tetrahydroisoquinolin-6-ol]: the melting point is 63 to 87 °C.

As for `CCOc1cccc(C(=O)N2CCc3cc(O)ccc3C2)c1` [B4, 2-(3-Ethoxybenzoyl)-1,2,3,4-tetrahydroisoquinolin-6-ol], the melting point lay in the range of 150 to 151 °C.

`COc1cc(CC(=O)N2CCc3cc(O)ccc3C2)cc(OC)c1OC` [B5, 2-(3,4,5-Trimethoxyphenylacetyl)-1,2,3,4-tetrahydroisoquinolin-6-ol] gave a melting point of 37 to 53 °C.

In the case of `CCOc1ccc(C(=O)N2CCc3cc(O)ccc3C2)cc1OCC` [B6, 2-(3,4-Diethoxybenzoyl)-1,2,3,4-tetrahydroisoquinolin-6-ol], the melting point was 149 to 160 °C.

Molecule `COc1ccc(OC)c(C(=O)N2CCc3cc(O)ccc3C2)c1` [B7, 2-(2,5-Dimethoxybenzoyl)-1,2,3,4-tetrahydroisoquinolin-6-ol] displayed a melting point of 61 to 86 °C.

In turn, `COc1ccc(C(=O)N2CCc3cc(O)ccc3C2)c(OC)c1` [B8, 2-(2,4-Dimethoxybenzoyl)-1,2,3,4-tetrahydroisoquinolin-6-ol] had a melting point of 62 to 87 °C.

For the molecule `COc1cccc(C(=O)N2CCc3cc(O)ccc3C2)c1OC` [B9, 2-(2,3-Dimethoxybenzoyl)-1,2,3,4-tetrahydroisoquinolin-6-ol], the melting point is 167 to 172 °C.

`COc1ccc(C(=O)N2CCc3cc(O)ccc3C2)cc1OC` [B10, 2-(3,4-Dimethoxybenzoyl)-1,2,3,4-tetrahydroisoquinolin-6-ol] registered a melting point of 58 to 77 °C.

Turning to `COc1cc(OC)c(C(=O)N2CCc3cc(O)ccc3C2)cc1OC` [B11, 2-(2,4,5-Trimethoxybenzoyl)-1,2,3,4-tetrahydroisoquinolin-6-ol], the melting point lay within 180 to 188 °C.

`CCOc1cc(C(=O)N2CCc3cc(O)ccc3C2)cc(OCC)c1OCC` [B14, 2-(3,4,5-Triethoxybenzoyl)-1,2,3,4-tetrahydroisoquinolin-6-ol]: the melting point amounted to 158 °C.

In turn, `COc1ccccc1CN1CCc2cc(O)ccc2C1` [B16, 2-(2-Methoxybenzyl)-1,2,3,4-tetrahydroisoquinolin-6-ol] came in with a melting point of 148 to 155 °C.

`COc1ccc(CN2CCc3cc(O)ccc3C2)cc1` [B17, 2-(4-methoxybenzyl)-1,2,3,4-tetrahydroisoquinolin-6-ol] yielded a melting point of 158 to 160 °C.

Consider `CCOc1cccc(CN2CCc3cc(O)ccc3C2)c1` [B18, 2-(3-Ethoxybenzyl)-1,2,3,4-tetrahydroisoquinolin-6-ol], for which the melting point lay in the range of 120 to 121 °C.

`COc1ccc(OC)c(CN2CCc3cc(O)ccc3C2)c1` [B19, 2-(2,5-Dimethoxybenzyl)-1,2,3,4-tetrahydroisoquinolin-6-ol] registered a melting point of 178 to 192 °C.

For the molecule `COc1cc(CN2CCc3cc(O)ccc3C2)cc(OC)c1` [B20, 2-(3,5-Dimethoxybenzyl)-1,2,3,4-tetrahydroisoquinolin-6-ol], the melting point lay in the range of 189 to 195 °C.

Take `COc1cccc(CN2CCc3cc(O)ccc3C2)c1OC` [B21, 2-(2,3-Dimethoxybenzyl)-1,2,3,4-tetrahydroisoquinolin-6-ol]: the melting point was in the range of 111 to 115 °C.

Regarding `CCOc1ccc(CN2CCc3cc(O)ccc3C2)cc1OCC` [B22, 2-(3,4-Diethoxybenzyl)-1,2,3,4-tetrahydroisoquinolin-6-ol], the melting point was in the range of 150 to 154 °C.

Molecule `COc1ccc(CN2CCc3cc(O)ccc3C2)cc1OC` [B23, 2-(3,4-Dimethoxybenzyl)-1,2,3,4-tetrahydroisoquinolin-6-ol] displayed a melting point of 119 to 122 °C.

In turn, `Oc1ccc2c(c1)CCN(Cc1ccc3c(c1)OCO3)C2` [B24, 2-(Benzo[d][1,3]dioxol-5-ylmethyl)-1,2,3,4-tetrahydroisoquinolin-6-ol] had a melting point of 169 to 172 °C.

As to `COc1ccc(CN2CCc3cc(O)ccc3C2)c(OC)c1` [B25, 2-(2,4-Dimethoxybenzyl)-1,2,3,4-tetrahydroisoquinolin-6-ol], the melting point was 149 to 152 °C.

`COc1cc(OC)c(OC)cc1CN1CCc2cc(O)ccc2C1` [B26, 2-(2,4,5-Trimethoxybenzyl)-1,2,3,4-tetrahydroisoquinolin-6-ol]: the melting point was 188 to 191 °C.

`CCOc1cc(CN2CCc3cc(O)ccc3C2)cc(OCC)c1OCC` [B27, 2-(3,4,5-triethoxybenzyl)-1,2,3,4-tetrahydroisoquinolin-6-ol] gave a melting point of 140 to 142 °C.

Consider `COc1cc(O)c(CN2CCc3cc(O)ccc3C2)c(OC)c1` [B28, 2-(2-Hydroxy-4,6-dimethoxybenzyl)-1,2,3,4-tetrahydroisoquinolin-6-ol], for which the melting point is 109 to 112 °C.

`COc1cc(CCN2CCc3cc(O)ccc3C2)cc(OC)c1OC` [B29, 2-(3,4,5-Trimethoxyphenethyl)-1,2,3,4-tetrahydroisoquinolin-6-ol] had a melting point of 180 to 186 °C.

Molecule `COc1cc(OC)c(C(=O)N2CCc3cc(OCc4ccccc4)c(OC)cc3C2)c(OC)c1` [F1, 6-Benzyloxy-7-methoxy-2-(2,4,6-trimethoxybenzoyl)-1,2,3,4-tetrahydroisoquinoline] registered a melting point of 70 to 72 °C.

In turn, `COc1cc(OC)c(CN2CCc3cc(OCc4ccccc4)c(OC)cc3C2)c(OC)c1` [F2, 6-Benzyloxy-7-methoxy-2-(2,4,6-trimethoxybenzyl)-1,2,3,4-tetrahydroisoquinoline] yielded a melting point of 129 to 131 °C.

With `COc1cc(OC)c(CN2CCc3cc(O)c(OC)cc3C2)c(OC)c1` [F3, 7-Methoxy-2-(2,4,6-trimethoxybenzyl)-1,2,3,4-tetrahydroisoquinolin-6-ol], the melting point lay within 150 to 151 °C.

Turning to `COc1cc2c(cc1OCc1ccccc1)CCN(Cc1cc(F)cc(F)c1)C2` [F5, 6-Benzyloxy-2-(3,5-difluorobenzyl)-7-methoxy-1,2,3,4-tetrahydroisoquinoline], the melting point fell in the range of 116 to 117 °C.

`COc1cc2c(cc1O)CCN(Cc1cc(F)cc(F)c1)C2` [F6, 2-(3,5-Difluorobenzyl)-7-methoxy-1,2,3,4-tetrahydroisoquinolin-6-ol] displayed a melting point of 110 to 111 °C.

Molecule `COc1cccc(CN2Cc3cc(OC)c(OCc4ccccc4)cc3C(O)C2)c1` (stereo not shown) [F17, 6-Benzyloxy-7-methoxy-2-(3-methoxybenzyl)-1,2,3,4-tetrahydroisoquinolin-4-ol] had a melting point of 115 to 116 °C.

Regarding `COc1ccccc1CN1Cc2cc(OC)c(OCc3ccccc3)cc2C(OC)C1` (stereo not shown) [F19, 6-Benzyloxy-4,7-dimethoxy-2-(2-methoxybenzyl)-1,2,3,4-tetrahydroisoquinoline], the melting point lay in the range of 101 to 102 °C.

Take `COc1cccc(CN2Cc3cc(OC)c(OCc4ccccc4)cc3C(OC)C2)c1` (stereo not shown) [F20, 6-Benzyloxy-4,7-dimethoxy-2-(3-methoxybenzyl)-1,2,3,4-tetrahydroisoquinoline]: the melting point fell in the range of 96 to 97 °C.

`COc1cc2c(cc1OCc1ccccc1)C(OC)CN(Cc1cc(OC)c(OC)c(OC)c1)C2` (stereo not shown) [F22, 6-Benzyloxy-4,7-dimethoxy-2-(3,4,5-trimethoxybenzyl)-1,2,3,4-tetrahydroisoquinoline]: the melting point was in the range of 89 to 90 °C.

As for `CCOC1CN(Cc2ccc(OC)cc2)Cc2cc(OC)c(OCc3ccccc3)cc21` (stereo not shown) [F25, 6-Benzyloxy-4-ethoxy-7-methoxy-2-(4-methoxybenzyl)-1,2,3,4-tetrahydroisoquinoline], the melting point was in the range of 84 to 85 °C.

The molecule `CCOC1CN(Cc2cc(OC)c(OC)c(OC)c2)Cc2cc(OC)c(OCc3ccccc3)cc21` (stereo not shown) [F26, 6-Benzyloxy-4-ethoxy-7-methoxy-2-(3,4,5-trimethoxybenzyl)-1,2,3,4-tetrahydro-isoquinoline] registered a melting point of 132 to 133 °C.

Consider `COc1cccc(CN2Cc3cc(OC)c(O)cc3C(O)C2)c1` (stereo not shown) [F28, 7-Methoxy-2-(3-methoxybenzyl)-1,2,3,4-tetrahydroisoquinoline-4,6-diol], for which the melting point lay in the range of 137 to 138 °C.

Regarding `COc1cc2c(cc1O)C(O)CN(Cc1cc(OC)c(OC)c(OC)c1)C2` (stereo not shown) [F29, 7-Methoxy-2-(3,4,5-trimethoxybenzyl)-1,2,3,4-tetrahydroisoquinoline-4,6-diol], the melting point lay within 62 to 63 °C.

Molecule `COc1cc2c(cc1O)C(OC)CN(Cc1ccccc1OC)C2` (stereo not shown) [F30, 4,7-Dimethoxy-2-(2-methoxybenzyl)-1,2,3,4-tetrahydro-isoquinolin-6-ol] returned a melting point of 45 to 47 °C.

`COc1cccc(CN2Cc3cc(OC)c(O)cc3C(OC)C2)c1` (stereo not shown) [F31, 4,7-Dimethoxy-2-(3-methoxybenzyl)-1,2,3,4-tetrahydro-isoquinolin-6-ol] yielded a melting point of 133 to 134 °C.

With `COc1ccc(CN2Cc3cc(OC)c(O)cc3C(OC)C2)cc1` (stereo not shown) [F32, 4,7-Dimethoxy-2-(4-methoxybenzyl)-1,2,3,4-tetrahydro-isoquinolin-6-ol], the melting point lay in the range of 84 to 85 °C.

These data come from patent publication US8394825B2, “Compound” (Sterix Limited, priority 2007, dated 2013).
